Columns and labels:
[1] = test system: ovariectomized female mice; assay: Intraperitoneal insulin tolerance test, curative model; format: in vivo, C57BL/6J mice; conditions: test on day 52 of administration
Protocol: (§1) A curative mouse model for osteoporosis was used for experiments, as follows. 16-week old female C57Bl/6J mice were ovariectomized and left for 2 months to develop the symptoms of osteoporosis and postmenopausal weigh gain and glucose intolerance. Administration of the respective treatment was initiated following these 2 months after the ovariectomies, i.e, once the mice already developed the symptoms of the respective metabolic disease.
Insulin sensitivity (normalized values) was measured by intraperitoneal insulin tolerance test of ovariectomized female mice, administered with the respective treatment starting 2 months flowing the surgery, considered as day 0. Test is performed on day 52 after staring the administration.
Ovariectomy: 16 weeks old C57Bl/6J female mice, obtained through Janvier, were be anesthetised with Xylazin/Ketamin (injection of 120 μl of a mixture of 120 mg/kg ketamine and 16 mg/kg xylazine) and shaved below the ribs on the back side. Betadine was be applied to the area for appropriate disinfection. After a 1-2 cm incision through the skin and the muscle layer just below the ribs, the ovary was localized, the fallopian tube ligated with dissolving suture and the ovary removed. The muscle layer was sutured with dissolving suture, the wound closed with staples and disinfected. The same procedure was/will be performed on the other side. […]

[2] = test system: ovariectomized female mice; assay: 3-point bending test of femur, curative model; format: in vivo, C57BL/6J mice; conditions: postmortem, day 60
Excerpt: as §1
Ovariectomy: 16 weeks old C57Bl/6J female mice, obtained through Janvier, were be anesthetised with Xylazin/Ketamin (injection of 120 μl of a mixture of 120 mg/kg ketamine and 16 mg/kg xylazine) and shaved below the ribs on the back side. Betadine was be applied to the area for appropriate disinfection. After a 1-2 cm incision through the skin and the muscle layer just below the ribs, the ovary was localized, the fallopian tube ligated with dissolving suture and the ovary removed. The muscle layer was sutured with dissolving suture, the wound closed with staples and disinfected. The same procedure was/will be performed on the other side. A dose of Tamgesic was/will be administered 4 hours after the surgery, and the staples were removed 7 days after the surgery under isoflurane anesthesia. The sham-operated animals underwent the same procedure, without ligating the fallopian tube and the ovary excision. All mice were then kept for additional 2 months after the ovariectomies before starting the respective curative treatments.
Microbiota transplantation: Lactobacillus gasseri (DSM 20604) and Parabacteroides goldsteinii (DSM 19948) were pushased from DSMZ. Lactobacillus reuteri (PTA-6475) was obtained from ATCC. […] Freshly prepared bacteria were diluted in anaerobic PBS to a final concentration equivalent to 1.5 OD/ml at 600 nm. 200 ul of this suspension was gavaged every second day to ovariectomized mice, starting 2 months post-surgery for 38 day. From day 38 of the gavage until the day od sacrifice at day 60 the concentration was equivalent to 2 OD/ml at 600 nm, of which 200 ul was gavaged.
The amount administered was 80 μg/kg body weight once per week with subcutaneous injection, in total amount of 100-200 μl per injection.

[3] = test system: Procollagen Type-1 N Terminal Propeptide (P1NP); assay: Plasma bone formation marker P1NP (ELISA); format: in vivo, mice; conditions: P. goldsteinii 1.5 OD/ml, 200 μl every second day, given with alendronate 80 μg/kg BW once a week
Protocol: Supplementation of P. goldsteinii increases secretion the bone formation marker P1NP, measured at Day 29 (FIG. 18A), or Day 50 (FIG. 18B) after the beginning of the treatment.
Measuring plasma bone turnover markers: After 5 h fasting (during the treatment), blood samples were collected from the tail of the mice with microvette capillary tubes containing EDTA and plasma was isolated after centrifuging 10000 g for 10 minutes. Plasma samples are collected during sacrifice (at the end of experiment) by taking 500 μl of blood from terminally anesthetized mice in tubes with 10 μl of […] EDTA, 4 μl of aprotinin (1.3%) and 4 μl of DPP-IV (10 mM), followed by centrifugation as described before. N-terminal pro-collagen type 1 extension pro-peptide (PINP) was measured with an ELISA kit (cat no:AC-33F, Immunodiagnostic Systems) according to manufacturers' instructions.

[4] = curative model; treatment started 2 months after ovariectomy; alendronate 80 μg/kg/week s.c.; HI P. goldsteinii by gavage every second day

## NCCCC(O)(P(=O)(O)O)P(=O)(O)O [alendronate]
[1]
  Insulin sensitivity (intraperitoneal insulin tolerance test): unaffected
[2]
  Elastic energy of femurs (femur metaphysis, FIG. 10): no changes
  Elastic energy, femur midshaft: No changes
  Stiffness, femur metaphysis: corrected ovariectomy induced decreases in stiffness
  Stiffness, femur midshaft: No changes
  Ultimate stress, femur metaphysis: not observed to result in a statistically significant increase
  Ultimate stress, femur midshaft: not observed to result in improvements
[3]
  P1NP levels after 50 days of treatment: reduction in P1NP levels
[4]
  Body weight gain: did not alter the body weight

— US20240325461A1, “COMBINATION THERAPIES FOR THE TREATMENT OF DISEASES” (Research Development Foundation, priority 2023, published 2024)
